Like-named read-outs stand apart in the source and are kept apart here.

The assay addresses T1, HIV protease (Human immunodeficiency virus type 1 group M subtype B, UniProt P04585).
T1 construct: A third viral enzyme known as protease then cleaves the polyproteins
The assay can be described thus: Enzymatic Assay for Determining the Inhibition Constant (Ki) of Synthetic Compounds Targeting the HIV Protease (fluorometric FRET assay). The assay is classed as biochemical. An excerpt:
Enzymatic Assay for Determining the Inhibition Constant (Ki) of Synthetic Compounds Targeting the HIV Protease
This is a fluorometric assay based on the cleavage by protease of a substrate carrying a donor group (EDANS) and an acceptor group (DABCYL) on each side of the cleavage site, interacting together through fluorescence resonance energy transfer (FRET) as described by Matayoshi et al. (Science 247:[…], 1990).
After calculation of Vo and Vi, the inhibition constant (Ki) of the compound is determined using the equation of Henderson: [formula]
where Vo=the enzyme's initial velocity
Vi=the enzyme velocity in the presence of the inhibitory compound,
[I]=inhlibitor concentration, [S]=substrate concentration,
Km=Michaelis-Menten constant and Kiapp=apparent Ki
Graphs are traced and the Ki determined using GraphPad Prism software v. 3.0.

What is called Ki is a dissociation constant, usually derived from enzyme kinetics or from competition with a known ligand. Take `Cc1ccc(S(=O)(=O)N[C@@H](CO)C(=O)NCCCC[C@@H](C(=O)O)N(CC(C)C)S(=O)(=O)c2ccc(C)cc2)cc1` [Example 32, Nα-Isobutyl-Nα-(4-methylbenzenesulfonyl)-Nε-[N′α-(4-methylbenzenesulfonyl)-L-seryl]-L-lysine]: the affinity corresponds to a Ki of 93 nM.

As to `Cc1ccc(S(=O)(=O)N[C@@H](CC2CCCCC2)C(=O)NCCCC[C@@H](C(=O)O)N(CC(C)C)S(=O)(=O)c2ccc(C)cc2)cc1` [Example 33, Nα-Isobutyl-Nα-(4-methylbenzenesulfonyl)-Nε-[N′α-(4-methylbenzenesulfonyl)-L-cyclohexylalanyl]-L-lysine], affinity was put at a Ki of 3.2 nM. `Cc1ccc(S(=O)(=O)N[C@@H](CCC(N)=O)C(=O)NCCCC[C@@H](C(=O)O)N(CC(C)C)S(=O)(=O)c2ccc(C)cc2)cc1` [Example 34, Nα-Isobutyl-Nα-(4-methylbenzenesulfonyl)-Nε-[N′α-(4-methylbenzenesulfonyl)-L-glutaminyl]-L-lysine] displayed a Ki of 95 nM. Consider `Cc1ccc(S(=O)(=O)N[C@@H](Cc2cccs2)C(=O)NCCCC[C@@H](C(=O)O)N(CC(C)C)S(=O)(=O)c2ccc(C)cc2)cc1` [Example 35, Nα-Isobutyl-Nα-(4-methylbenzenesulfonyl)-Nε-[N′α-(4-methylbenzenesulfonyl)-L-2-thiophenylalanyl]-L-lysine], for which the affinity corresponds to a Ki of 21 nM. As for `Cc1ccc(S(=O)(=O)N(CC(C)C)[C@@H](CCCCNC(=O)[C@H](CO)NC(=O)OCC2c3ccccc3-c3ccccc32)C(=O)O)cc1` [Example 36, Nα-Isobutyl-Nα-(4-methylbenzenesulfonyl)-Nε-[N′α-(9-fluorenylmethoxycarbonyl)-L-seryl]-L-lysine], where the note is “Anti-protease activity of Ne-amino acid substituted L-lysine derivatives and analogs of formula I, read-out: Ki”, the Ki was determined as 162 nM. With `Cc1ccc(S(=O)(=O)N(CC(C)C)[C@@H](CCCCNC(=O)[C@H](CC2CCCCC2)NC(=O)OCC2c3ccccc3-c3ccccc32)C(=O)O)cc1` [Example 37, Nα-Isobutyl-Nα-(4-methylbenzenesulfonyl)-Nε-[N′α-(9-fluorenylmethoxycarbonyl)-L-cyclohexylalanyl]-L-lysine], the inhibition constant (Ki) worked out at 28 nM. Still for that read-out and setting: the result for `Cc1ccc(S(=O)(=O)N[C@@H](CCC(=O)O)C(=O)NCCCC[C@@H](C(=O)O)N(CC(C)C)S(=O)(=O)c2ccc(C)cc2)cc1` [Example 38, Nα-Isobutyl-Nα-(4-methylbenzenesulfonyl)-Nε-[N′α-(4-methylbenzenesulfonyl)-L-glutamyl]-L-lysine] reads 220 nM; that for `Cc1ccc(S(=O)(=O)N[C@@H](CCCCN)C(=O)NCCCC[C@@H](C(=O)O)N(CC(C)C)S(=O)(=O)c2ccc(C)cc2)cc1` [Example 39, Nα-Isobutyl-Nα-(4-methylbenzenesulfonyl)-Nε-[N′α-(4-methylbenzenesulfonyl)-L-lysyl]-L-lysine], above 300 nM; that for `Cc1ccc(S(=O)(=O)N[C@@H](COCc2ccccc2)C(=O)NCCCC[C@@H](C(=O)O)N(CC(C)C)S(=O)(=O)c2ccc(C)cc2)cc1` [Example 40, Nα-Isobutyl-Nα-(4-methylbenzenesulfonyl)-Nε-[N′α-(4-methylbenzenesulfonyl)-O-benzyl-L-seryl]-L-lysine], 8 nM. Molecule `Cc1ccc(S(=O)(=O)N[C@@H](CC(=O)O)C(=O)NCCCC[C@@H](C(=O)O)N(CC(C)C)S(=O)(=O)c2ccc(C)cc2)cc1` [Example 41, Nα-Isobutyl-Nα-(4-methylbenzenesulfonyl)-Nε-[N′α-(4-methylbenzenesulfonyl)-L-aspartyl]-L-lysine] gave a Ki of 172 nM.

Turning to `Cc1ccc(S(=O)(=O)N[C@@H](Cc2cc3ccccc3s2)C(=O)NCCCC[C@@H](C(=O)O)N(CC(C)C)S(=O)(=O)c2ccc(C)cc2)cc1` [Example 42, Nα-Isobutyl-Nα-(4-methylbenzenesulfonyl)-Nε-[N′α-(4-methylbenzenesulfonyl)-L-3-(2-thianaphthyl)-alanyl]-L-lysine], the inhibition constant (Ki) turned out to be 256 nM. The same measure, in the same setting: the result for `Cc1ccc(S(=O)(=O)N[C@@H](Cc2c[nH]c3ccccc23)C(=O)NCCCC[C@@H](C(=O)O)N(CC(C)C)S(=O)(=O)c2ccc(N)cc2)cc1` [Example 43, Nα-(4-Aminobenzenesulfonyl)-Nα-isobutyl-Nε-[N′α-(4-methylbenzenesulfonyl)-L-tryptophanyl]-L-lysine] reads 0.56 nM. Same read-out and setting: as for `CC(C)CN([C@@H](CCCCNC(=O)[C@H](Cc1ccccc1)NS(=O)(=O)c1ccccc1)C(=O)O)S(=O)(=O)c1ccc(N)cc1` [Example 44, Nα-(4-Aminobenzenesulfonyl)-Nα-isobutyl-Nε-(N′α-benzenesulfonyl-L-phenylalanyl)-L-lysine], the figure is 3.6 nM; as for `Cc1ccc(S(=O)(=O)NC(Cc2c[nH]c3ccccc23)C(=O)NCCCCC(C(=O)OCC(O)CO)N(CC(C)C)S(=O)(=O)c2ccc(C)cc2)cc1` [Example 45, Nα-Isobutyl-Nα-(4-methylbenzenesulfonyl)-Nε-[N′α-(4-methylbenzenesulfonyl)-L-tryptophanyl]-L-lysine 2,3-Dihydroxypropyl Ester], above 300 nM; as for `CC(C)CN([C@@H](CCCCNC(=O)[C@H](Cc1ccccc1)NS(=O)(=O)c1cccs1)C(=O)O)S(=O)(=O)c1ccc(N)cc1` [Example 46, Nα-(4-Aminobenzenesulfonyl)-Nα-isobutyl-Nε-[N′α-(2-thiophenesulfonyl)-L-phenylalanyl]-L-lysine], 0.477 nM. In turn, `Cc1ccc(S(=O)(=O)N[C@@H](CC(N)=O)C(=O)NCCCC[C@@H](C(=O)O)N(CC(C)C)S(=O)(=O)c2ccc(N)cc2)cc1` [Example 47, Nα-(4-Aminobenzenesulfonyl)-Nα-isobutyl-Nε-[N′α-(4-methylbenzenesulfonyl)-L-asparagyl]-L-lysine] returned an inhibition constant (Ki) of 54 nM.

Turning to `Cc1ccc(S(=O)(=O)N(CC(C)C)[C@@H](CCCCNC(=O)[C@H](CC(N)=O)NC(=O)OCc2ccccc2)C(=O)O)cc1` [Example 48, Nα-Isobutyl-Nα-(4-Methylbenzenesulfonyl)-Nε-(N′α-benzyloxycarbonyl-L-asparagyl)-L-lysine], affinity was put at a Ki of 114 nM. Same read-out and setting: the result for `CC(C)CN([C@@H](CCCCNC(=O)[C@H](Cc1ccccc1)NS(=O)(=O)c1cccs1)C(=O)NN)S(=O)(=O)c1ccc(N)cc1` [Example 49, Nα-(4-Aminobenzenesulfonyl)-Nα-isobutyl-Nε-[N′α-(2-thiophenesulfonyl)-L-phenylalanyl]-L-lysine Hydrazide] reads 17 nM; that for `Cc1ccc(S(=O)(=O)N(CC(C)C)[C@@H](CCCCNC(=O)[C@H](Cc2ccccc2)NC(=O)c2ccccc2)C(=O)O)cc1` [Example 50, Nα-Isobutyl-Nα-(4-methylbenzenesulfonyl)-Nε-(N′α-benzoyl-L-phenylalanyl)-L-lysine], 2 nM; that for `Cc1ccc(S(=O)(=O)N(CC(C)C)[C@@H](CCCCNC(=O)[C@H](Cc2ccccc2)NC(=O)N2CCOCC2)C(=O)O)cc1` [Example 51, Nα-Isobutyl-Nα-(4-methylbenzenesulfonyl)-Nε-[N′α-(4-morpholinecarbonyl)-L-phenylalanyl]-L-lysine], 0.9 nM. Same read-out and setting: the result for `Cc1ccc(S(=O)(=O)N(CC(C)C)[C@@H](CCCCNC(=O)[C@H](Cc2ccccc2)NC(=O)C(C)(C)C)C(=O)O)cc1` [Example 52, Nα-Isobutyl-Nα-(4-methylbenzenesulfonyl)-Nε-(N′α-pivaloyl-L-phenylalanyl)-L-lysine] reads 0.545 nM.

Values taken from patent US6610689B2, “HIV protease inhibitors based on amino acid derivatives” (priority 2001, dated 2003).
